# Measurements from PMC10527014 (Antiviral research, 2023).
# Assays:
# [1] = tested on: Coxsackievirus B3-Woodruff (CVB3); type: cell-based; details: read-out: Inhibitory concentration EC50 against CVB3-Woodruff; HeLa cells; infecting at low MOI 0.1 PFU / cell and adding drug after infection is established; ± SEM
# Coxsackie B3 HA 201933 [2] = assay: Virus yield reduction assay, Coxsackie B3 HA 201933; type: cell-based; details: read-out: 90% Effective concentration EC90; Coxsackie B3 HA 201933, Vero 76, virus yield reduction
# EV-D68 US/KY/14-18953 = assay: Virus yield reduction assay, EV-D68 US/KY/14-18953; type: cell-based; details: read-out: 90% Effective concentration EC90, EV-D68 US/KY/14-18953, RD
# EV-71 Tainan/4643/98 = assay: Virus yield reduction assay, EV-71 Tainan/4643/98; type: cell-based; details: read-out: 90% Effective concentration EC90; EV-71 Tainan/4643/98, Vero 76, virus yield reduction
# SARS-CoV-2 USA/WA1/2020 = assay: CPE reduction assay, SARS-CoV-2 USA/WA1/2020; type: cell-based; details: read-out: 50% Effective concentration EC50; SARS-CoV-2 USA/WA1/2020, Vero 76, CPE
# CYP2C19 = CYP2C19 (Homo sapiens, UniProt P33261); assay: CYP inhibition, CYP2C19; type: in vitro ADME; details: read-out: CYP inhibition
# [3] = Mouse plasma protein binding; type: in vitro ADME
# [4] = Human plasma protein binding; type: in vitro ADME
# Caco-2 = Caco-2 permeability; type: in vitro ADME
# hERG = hERG (Homo sapiens, UniProt Q12809); assay: hERG inhibition; details: read-out: hERG inhibition IC50
# [5] = biological target: T1, pregnane X-receptor (PXR) (Homo sapiens, UniProt O75469); assay: PXR agonist activity
# T1 sequence (O75469 1-434): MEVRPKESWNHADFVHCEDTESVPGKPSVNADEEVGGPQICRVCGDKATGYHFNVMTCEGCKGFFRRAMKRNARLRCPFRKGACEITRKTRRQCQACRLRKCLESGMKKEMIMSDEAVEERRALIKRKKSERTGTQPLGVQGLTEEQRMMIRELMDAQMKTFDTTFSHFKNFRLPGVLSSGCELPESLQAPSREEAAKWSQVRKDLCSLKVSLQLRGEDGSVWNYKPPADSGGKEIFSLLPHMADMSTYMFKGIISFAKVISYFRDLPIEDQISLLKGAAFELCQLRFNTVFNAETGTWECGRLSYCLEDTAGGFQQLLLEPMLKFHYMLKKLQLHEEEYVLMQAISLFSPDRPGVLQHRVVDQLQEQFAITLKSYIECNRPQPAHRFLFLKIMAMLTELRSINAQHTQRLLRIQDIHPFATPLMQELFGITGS
# [6] = tested on: EV-D68 MP30 PP (mouse-adapted); assay: EV-D68 neurological infection; type: in vivo, AG129 mice; details: for Mean day of death: placebo 5.5 days
# Coxsackie B3 HA 201933 [7] = details: read-out: 50% Effective concentration EC50; Coxsackie B3 HA 201933, Vero 76, CPE
# Coxsackie B3 Nancy = details: read-out: 50% Effective concentration EC50, Vero 76, CPE
# [8] = tested on: Human Echovirus-11 Gregory; details: read-out: 50% Effective concentration EC50, RD, lowest concentration tested 0.032 μM
# Sequence of CYP2C19 (P33261 whole entry): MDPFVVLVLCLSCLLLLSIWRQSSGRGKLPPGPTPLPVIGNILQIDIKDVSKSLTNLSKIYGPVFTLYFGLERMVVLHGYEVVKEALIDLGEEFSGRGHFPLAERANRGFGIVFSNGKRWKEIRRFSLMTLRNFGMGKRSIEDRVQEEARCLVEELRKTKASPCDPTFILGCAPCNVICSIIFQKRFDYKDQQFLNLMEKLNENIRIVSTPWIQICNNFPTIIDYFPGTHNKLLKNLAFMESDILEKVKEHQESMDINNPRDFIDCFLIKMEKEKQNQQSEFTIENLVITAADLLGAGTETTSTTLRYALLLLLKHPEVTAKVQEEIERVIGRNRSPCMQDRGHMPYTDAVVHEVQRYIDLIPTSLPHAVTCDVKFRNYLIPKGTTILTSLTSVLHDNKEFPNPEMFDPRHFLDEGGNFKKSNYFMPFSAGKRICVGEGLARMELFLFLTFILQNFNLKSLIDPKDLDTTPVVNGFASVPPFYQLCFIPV
# Sequence of hERG (Q12809 whole entry): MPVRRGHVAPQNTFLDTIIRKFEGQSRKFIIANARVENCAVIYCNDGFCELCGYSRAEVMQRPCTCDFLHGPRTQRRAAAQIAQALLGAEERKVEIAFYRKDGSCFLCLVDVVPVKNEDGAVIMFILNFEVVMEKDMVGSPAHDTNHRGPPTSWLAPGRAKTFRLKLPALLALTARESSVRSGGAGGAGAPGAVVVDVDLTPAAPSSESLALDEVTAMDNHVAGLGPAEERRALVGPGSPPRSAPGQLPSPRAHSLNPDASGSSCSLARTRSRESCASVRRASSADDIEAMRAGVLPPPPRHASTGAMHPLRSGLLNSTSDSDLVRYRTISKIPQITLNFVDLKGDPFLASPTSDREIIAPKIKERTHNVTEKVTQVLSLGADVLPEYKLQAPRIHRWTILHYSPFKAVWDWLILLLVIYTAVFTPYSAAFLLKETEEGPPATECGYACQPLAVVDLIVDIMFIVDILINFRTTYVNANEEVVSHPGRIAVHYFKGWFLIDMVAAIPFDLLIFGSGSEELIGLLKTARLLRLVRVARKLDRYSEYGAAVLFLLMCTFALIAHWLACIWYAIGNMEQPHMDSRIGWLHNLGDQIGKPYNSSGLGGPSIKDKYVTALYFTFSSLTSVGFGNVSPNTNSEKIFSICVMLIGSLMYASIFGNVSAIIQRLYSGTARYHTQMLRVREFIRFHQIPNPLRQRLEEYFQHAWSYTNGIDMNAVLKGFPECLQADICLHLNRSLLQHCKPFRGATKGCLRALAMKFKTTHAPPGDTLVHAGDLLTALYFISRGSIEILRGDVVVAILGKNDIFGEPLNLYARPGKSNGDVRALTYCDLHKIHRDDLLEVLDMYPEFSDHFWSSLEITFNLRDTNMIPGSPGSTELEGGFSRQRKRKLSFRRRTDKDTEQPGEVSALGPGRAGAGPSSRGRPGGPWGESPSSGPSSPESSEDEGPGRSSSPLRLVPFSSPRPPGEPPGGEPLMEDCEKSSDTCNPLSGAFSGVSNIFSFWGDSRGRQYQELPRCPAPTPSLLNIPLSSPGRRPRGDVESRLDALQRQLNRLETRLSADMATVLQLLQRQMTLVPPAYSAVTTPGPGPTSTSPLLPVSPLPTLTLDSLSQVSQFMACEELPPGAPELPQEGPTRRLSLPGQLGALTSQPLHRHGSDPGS
smiles,measurement,setting,value
"Cc1cc(-c2noc(C(F)(F)F)n2)ccc1OCCCc1cc(C(=O)N(C)C)no1 [compound 11526092, 3-(3-methyl-4-(3-(3-N,N-dimethylcarbamoyl-isoxazol-5-yl)propoxy)phenyl)-5-trifluoromethyl-1,2,4-oxadiazole]",EC50,[1],16 nM
same,EC90,Coxsackie B3 HA 201933 [2],7780 nM
same,EC90,EV-D68 US/KY/14-18953,78 nM
same,EC90,EV-71 Tainan/4643/98,2450 nM
same,EC50,SARS-CoV-2 USA/WA1/2020,> 7540 nM
same,IC50,CYP2C19,2100 nM
same,"Mouse plasma protein binding, stability",[3],88.1%
same,"Mouse plasma protein binding, bound",[3]; mouse,99.8%
same,"Human plasma protein binding, stability",[4],93.9%
same,"Human plasma protein binding, bound",[4]; human,99.7%
same,Caco-2 Efflux ratio,Caco-2,3.5
same,Caco-2 Papp A-B,Caco-2,880 ×10⁻⁶ cm/s
same,Caco-2 Papp B-A,Caco-2,3090 ×10⁻⁶ cm/s
same,"P-gp substrate (in words, from Caco-2 data)",Caco-2,likely a P-gp substrate
same,IC50,hERG,> 100000 nM
same,PXR agonism (in words),[5],neither 11526092 nor pleconaril is an agonist
same,EC50,[5]; read-out: PXR EC50,> 100000 nM
same,Mean day of death,[6]; 1 mg 11526092-treated group,6.3 days
same,Mean day of death,[6]; 3 mg 11526092-treated group,5.4 days
same,Mean day of death,[6]; 10 mg 11526092-treated group,4.3 days
same,Efficacy in the acute flaccid myelitis neurological infection model,[6]; abstract,did not show efficacy
same,Neurological scores,[6]; post-challenge study,none of the 1526092-treated mice showed a statistically significant reduction in neurological scores
same,Protection from challenge infection (in words),[6]; pre-challenge study,None of the pre-challenge 1526092-treated mice were protected from challenge infection
same,EC50,Coxsackie B3 HA 201933 [7],1010 nM
same,EC50,Coxsackie B3 Nancy,1270 nM
same,EC50,[8],< 32 nM
